In patent publication US10703733B2, “MCL-1 inhibitors” (Gilead Sciences, Inc., priority 2018, dated 2020):
Like-named read-outs stand apart in the source and are kept apart here.

How the values were obtained:
SKBR3 cells = assay: SKBR3 Cell Viability Assay (CellTiter Glo); assay type: cell-based; settings: CellTiter Glo luminescence, read-out: MCL-1 CV SKBR3 EC50
Summary of the method: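 SKBR3 cells (6,000/well) in McCoy 5A + 10% FBS exposed to serially diluted compound for 72 h at 37° C., 5% CO2. Viability by CellTiter Glo luminescence; % inhibition normalized to DMSO (negative) and 10 μM puromycin (positive).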

[1] = target: MCL-1/Bim interaction (recombinant human MCL-1 protein, residues 171-327; biotinylated human Bim peptide, residues 51-76) (Homo sapiens (Human), UniProt Q07820); assay: MCL-1/Bim Binding AlphaLISA Assay; settings: 0.0625 nM 6xHis-Mcl-1 (171-327), 0.0625 nM biotinylated-Bim peptide
Summary of the method: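 AlphaLISA with 0.0625 nM His-tagged MCL-1 and 0.0625 nM biotin-Bim peptide in 20 mM Hepes pH 7.5, 150 mM NaCl, 0.002% Brij 35, 1 mM DTT, 0.01% BSA. Compound preincubated 1 h with MCL-1, Bim added for 2 h, then acceptor and donor beads 1 h each.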

Chain of MCL-1/Bim interaction (recombinant human MCL-1 protein, residues 171-327; biotinylated human Bim peptide, residues 51-76) (Q07820 171-327): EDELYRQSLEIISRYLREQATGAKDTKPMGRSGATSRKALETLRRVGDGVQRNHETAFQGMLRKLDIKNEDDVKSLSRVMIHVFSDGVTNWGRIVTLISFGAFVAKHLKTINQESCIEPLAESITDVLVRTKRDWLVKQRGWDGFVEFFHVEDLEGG

Row | Compound | EC50 (SKBR3 cells; Homo sapiens, SK-BR-3, 72 h) [nM] | IC50 [1] [nM] | EC50 (SKBR3 cells; 72 hours) [nM] | EC50 (SKBR3 cells; Homo sapiens, SK-BR-3, 72 hours) [nM]
1 | CO[C@H]1/C=C/C[C@H](C)[C@@H](C)[S@@](=O)(NC(=O)NC2CC2)=NC(=O)c2ccc3c(c2)N(C[C@@H]2CC[C@H]21)C[C@@]1(CCCc2cc(Cl)ccc21)CO3 [Example 414] | 154 | 0.217 |  | 
2 | CO[C@H]1/C=C/CCC[S@@](=O)(NC(=O)CCc2cnccn2)=NC(=O)c2ccc3c(c2)N(C[C@@H]2CC[C@H]21)C[C@@]1(CCCc2cc(Cl)ccc21)CO3 [Example 35] | 266 | 0.2 |  | 
3 | CO[C@H]1/C=C/CCC[S@@](=O)(NC(=O)CCCC(F)(F)F)=NC(=O)c2ccc3c(c2)N(C[C@@H]2CC[C@H]21)C[C@@]1(CCCc2cc(Cl)ccc21)CO3 [Example 95] | 1100 | 1.1 |  | 
4 | COCC1(O)CN(C(=O)N[S@@]2(=O)=NC(=O)c3ccc4c(c3)N(C[C@@H]3CC[C@H]3[C@@H](OC)/C=C/C[C@H](C)C2)C[C@@]2(CCCc3cc(Cl)ccc32)CO4)C1 [Example 268] | 88.8 | 0.058 |  | 
5 | CCCn1cc(C(=O)N[S@@]2(=O)=NC(=O)c3ccc4c(c3)N(C[C@@H]3CC[C@H]3[C@@H](OC)/C=C/C[C@H](C)C2)C[C@@]2(CCCc3cc(Cl)ccc32)CO4)cn1 [Example 420] | 124 | 0.237 |  | 
6 | CO[C@H]1/C=C/C[C@H](C)C[S@@](=O)(NC(=O)c2cc3n(c2)CCC3)=NC(=O)c2ccc3c(c2)N(C[C@@H]2CC[C@H]21)C[C@@]1(CCCc2cc(Cl)ccc21)CO3 [Example 136] | 76.4 | 0.183 |  | 
7 | COC1CN(C(=O)N[S@@]2(=O)=NC(=O)c3ccc4c(c3)N(C[C@@H]3CC[C@H]3[C@@H](OC)/C=C/CCC2)C[C@@]2(CCCc3cc(Cl)ccc32)CO4)C1 [Example 390] | 86.4 | 0.061 |  | 
8 | COC1CC2(C1)CN(C(=O)N[S@@]1(=O)=NC(=O)c3ccc4c(c3)N(C[C@@H]3CC[C@H]3[C@@H](OC)/C=C/C[C@H](C)C1)C[C@@]1(CCCc3cc(Cl)ccc31)CO4)C2 [Example 257] | 89.7 | 0.083 |  | 
9 | CCC(=O)N[S@]1(=O)=NC(=O)c2ccc3c(c2)N(C[C@@H]2CC[C@H]2[C@@H](OC)CCCCC1)C[C@@]1(CCCc2cc(Cl)ccc21)CO3 [Example 17] |  | 11.3 | 10000 | 
10 | CO[C@H]1/C=C/C[C@H](C)C[S@@](=O)(NC(=O)N2CCn3cccc3C2)=NC(=O)c2ccc3c(c2)N(C[C@@H]2CC[C@H]21)C[C@@]1(CCCc2cc(Cl)ccc21)CO3 [Example 457] | 392 | 0.085 |  | 
11 | CO[C@H]1/C=C/CCC[S@@](=O)(NC(=O)CCc2nccn2C)=NC(=O)c2ccc3c(c2)N(C[C@@H]2CC[C@H]21)C[C@@]1(CCCc2cc(Cl)ccc21)CO3 [Example 43] | 2410 | 1.6 |  | 
12 | CO[C@H]1/C=C/C[C@H](C)C[S@@](=O)(NC(=O)C2CC(C)(OC)C2)=NC(=O)c2ccc3c(c2)N(C[C@@H]2CC[C@H]21)C[C@@]1(CCCc2cc(Cl)ccc21)CO3 (some centres unmarked) [Example 169] | 61 | 0.048 |  | 
13 | CO[C@H]1/C=C/C[C@H](C)C[S@@](=O)(NC(=O)C2CC(C)(O)C2)=NC(=O)c2ccc3c(c2)N(C[C@@H]2CC[C@H]21)C[C@@]1(CCCc2cc(Cl)ccc21)CO3 (some centres unmarked) [Example 140] | 38.6 | 0.043 |  | 
14 | CCN(C)C(=O)N[S@]1(=O)=NC(=O)c2ccc3c(c2)N(C[C@@H]2CC[C@H]2[C@@H](OC)/C=C/CCC1)C[C@@]1(CCCc2cc(Cl)ccc21)CO3 [Example 76] | 6330 | 10.5 |  | 
15 | CCO[C@H]1/C=C/C[C@H](C)C[S@@](=O)(NC(=O)c2cn(C)nc2OC)=NC(=O)c2ccc3c(c2)N(C[C@@H]2CC[C@H]21)C[C@@]1(CCCc2cc(Cl)ccc21)CO3 [Example 367] | 101 | 0.063 |  | 
16 | CO[C@H]1/C=C/C[C@H](C)C[S@@](=O)(NC(=O)N2CC(OC)(C(F)(F)F)C2)=NC(=O)c2ccc3c(c2)N(C[C@@H]2CC[C@H]21)C[C@@]1(CCCc2cc(Cl)ccc21)CO3 [Example 246] | 176 | 0.096 |  | 
17 | COCc1cc(C(=O)N[S@@]2(=O)=NC(=O)c3ccc4c(c3)N(C[C@@H]3CC[C@H]3[C@@H](OC)/C=C/C[C@H](C)C2)C[C@@]2(CCCc3cc(Cl)ccc32)CO4)cn1C [Example 304] | 21.3 | 0.129 |  | 
18 | COc1nn(C)cc1C(=O)N[S@@]1(=O)=NC(=O)c2ccc3c(c2)N(C[C@@H]2CC[C@H]2[C@@H](OC(=O)CN(C)C)/C=C/C[C@H](C)C1)C[C@@]1(CCCc2cc(Cl)ccc21)CO3 [Example 301] | 41.9 | 0.04 |  | 
19 | CO[C@H]1/C=C/CCC[S@@](=O)(NC(=O)CCc2ccc(Cl)cc2)=NC(=O)c2ccc3c(c2)N(C[C@@H]2CC[C@H]21)C[C@@]1(CCCc2cc(Cl)ccc21)CO3 [Example 90] | 4560 | 0.5 |  | 

Row | Compound | EC50 (SKBR3 cells; Homo sapiens, SK-BR-3, 72 h) [nM] | IC50 [1] [nM] | EC50 (SKBR3 cells; 72 hours) [nM] | EC50 (SKBR3 cells; Homo sapiens, SK-BR-3, 72 hours) [nM]
20 | CO[C@H]1/C=C/C[C@H](C)C[S@@](=O)(NC(=O)N2CCC(OC(F)F)CC2)=NC(=O)c2ccc3c(c2)N(C[C@@H]2CC[C@H]21)C[C@@]1(CCCc2cc(Cl)ccc21)CO3 [Example 330] | 56.4 | 0.03 |  | 
21 | CO[C@H]1/C=C/CCC[S@@](=O)(NC(=O)CCc2nnc(C)o2)=NC(=O)c2ccc3c(c2)N(C[C@@H]2CC[C@H]21)C[C@@]1(CCCc2cc(Cl)ccc21)CO3 [Example 60] | 1090 | 0.2 |  | 
22 | CO[C@H]1/C=C/CCC[S@@](=O)(NC(=O)c2cc3ccccc3n2C)=NC(=O)c2ccc3c(c2)N(C[C@@H]2CC[C@H]21)C[C@@]1(CCCc2cc(Cl)ccc21)CO3 [Example 98] | 2190 | 0.3 |  | 
23 | CO[C@H]1/C=C/CCC[S@@](=O)(NC(=O)Cc2cnccn2)=NC(=O)c2ccc3c(c2)N(C[C@@H]2CC[C@H]21)C[C@@]1(CCCc2cc(Cl)ccc21)CO3 [Example 20] | 2060 | 0.5 |  | 
24 | COc1nn(C(F)F)cc1C(=O)N[S@@]1(=O)=NC(=O)c2ccc3c(c2)N(C[C@@H]2CC[C@H]2[C@@H](OC)/C=C/C[C@H](C)C1)C[C@@]1(CCCc2cc(Cl)ccc21)CO3 [Example 252] | 82.7 | 0.043 |  | 
25 | C[C@H]1C/C=C/[C@H](O)[C@@H]2CC[C@H]2CN2C[C@@]3(CCCc4cc(Cl)ccc43)COc3ccc(cc32)C(=O)N=[S@](=O)(NC(=O)N[C@H]2C[C@@H]2C(F)F)C1 [Example 321] | 47.1 | 0.037 |  | 
26 | CO[C@H]1/C=C/CCC[S@@](=O)(NC(=O)CCc2csc(C)n2)=NC(=O)c2ccc3c(c2)N(C[C@@H]2CC[C@H]21)C[C@@]1(CCCc2cc(Cl)ccc21)CO3 [Example 99] | 2090 | 0.2 |  | 
27 | COc1nn(C)cc1C(=O)N[S@@]1(=O)=NC(=O)c2ccc3c(c2)N(C[C@@H]2CC[C@H]2[C@@H](OC(=O)CN(C)C(=O)CNC(C)(C)C)/C=C/C[C@H](C)[C@H]1C)C[C@@]1(CCCc2cc(Cl)ccc21)CO3 [Example 293] | 69.2 | 0.058 |  | 
28 | COc1nn(C)cc1C(=O)N[S@@]1(=O)=NC(=O)c2ccc3c(c2)N(C[C@@H]2CC[C@H]2[C@@H](OC(C)=O)/C=C/C[C@H](C)[C@H]1C)C[C@@]1(CCCc2cc(Cl)ccc21)CO3 [Example 249] | 222 | 0.14 |  | 
29 | CC[C@@H]1CC/C=C/[C@H](OC)[C@@H]2CC[C@H]2CN2C[C@@]3(CCCc4cc(Cl)ccc43)COc3ccc(cc32)C(=O)N=[S@@]1(=O)NC(=O)CCc1ccnn1C [Example 70] |  | 0.2 | 374 | 
30 | CCn1ccc(C(=O)N[S@@]2(=O)=NC(=O)c3ccc4c(c3)N(C[C@@H]3CC[C@H]3[C@@H](OC)/C=C/C[C@H](C)C2)C[C@@]2(CCCc3cc(Cl)ccc32)CO4)c1 [Example 130] | 152 | 0.18 |  | 
31 | CO[C@H]1/C=C/C[C@H](C)C[S@@](=O)(NC(=O)N2CC(O)C2)=NC(=O)c2ccc3c(c2)N(C[C@@H]2CC[C@H]21)C[C@@]1(CCCc2cc(Cl)ccc21)CO3 [Example 289] | 588 | 0.053 |  | 
32 | CO[C@H]1/C=C/C[C@H](C)C[S@@](=O)(NC(=O)N2CC(N3CCN4CCOC[C@@H]4C3)C2)=NC(=O)c2ccc3c(c2)N(C[C@@H]2CC[C@H]21)C[C@@]1(CCCc2cc(Cl)ccc21)CO3 [Example 297] |  | 0.033 |  | 69
33 | COCCOCCO[C@H]1/C=C/[C@H](OC)[C@@H]2CC[C@H]2CN2C[C@@]3(CCCc4cc(Cl)ccc43)COc3ccc(cc32)C(=O)N=[S@](=O)(NC(=O)c2cn(C)nc2OC)C[C@H]1C [Example 376] | 26.7 | 0.031 |  | 
34 | CCn1cc(C(=O)N[S@@]2(=O)=NC(=O)c3ccc4c(c3)N(C[C@@H]3CC[C@H]3[C@@H](OC)/C=C/C[C@H](C)C2)C[C@@]2(CCCc3cc(Cl)ccc32)CO4)cn1 [Example 134] | 59.6 | 0.072 |  | 
35 | CO[C@H]1/C=C/C[C@H](C)C[S@@](=O)(NC(=O)N[C@@H]2C[C@@H]2OC)=NC(=O)c2ccc3c(c2)N(C[C@@H]2CC[C@H]21)C[C@@]1(CCCc2cc(Cl)ccc21)CO3 [Example 318] | 74.4 | 0.066 |  | 
36 | COC[C@@H]1CN(C(=O)N[S@@]2(=O)=NC(=O)c3ccc4c(c3)N(C[C@@H]3CC[C@H]3[C@@H](OC)/C=C/C[C@H](C)C2)C[C@@]2(CCCc3cc(Cl)ccc32)CO4)CCO1 [Example 232] | 243 | 0.052 |  | 
37 | CCC1CN(C(=O)N[S@@]2(=O)=NC(=O)c3ccc4c(c3)N(C[C@@H]3CC[C@H]3[C@@H](OC)/C=C/C[C@H](C)C2)C[C@@]2(CCCc3cc(Cl)ccc32)CO4)C1 [Example 242] | 84 | 0.074 |  | 
